Results taken from publication PMC9127750, “Structure-based design of CDC42 effector interaction inhibitors for the treatment of cancer” (Cell reports, 2022).

System: WM3248 melanoma cells, 486 antibodies
Assay: Reverse phase protein arrays (RPPA);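 as to RPPA ACC1.R.C: ratio of treated to vehicle (0 µM) normalized linear protein signal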;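 as to RPPA AMPK.a2 pS345.R.V: ratio of treated to vehicle (0 µM) normalized linear protein signal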;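 as to RPPA AMPKa pT172.R.C: ratio of treated to vehicle (0 µM) normalized linear protein signal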;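 as to RPPA ASNS.R.V: ratio of treated to vehicle (0 µM) normalized linear protein signal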
Format: cell-based, Human
Conditions: 5 uM
Excerpt: Pellets were snap frozen in liquid nitrogen and shipped to MD Anderson Cancer Center core RPPA facility for RPPA analysis (Table S5). Three biological replicates for each sample were generated.
Nomenclatures on the RPPA heatmaps: name_of_antibody.species_of_antibody.status_of_antibody. V - antibody validated; C - validation of antibody in progress; Q - antibody nonspecific; E – under evaluation; antibodies raised in M - mouse, G - goat, R - rabbit, or T - rat.

Structure (SMILES): CN(C)c1cccc(Nc2cc(-c3ccccc3)nc(C3CCNCC3)n2)c1 [ARN22089, N1,N1-dimethyl-N3-(6-phenyl-2-(piperidin-4-yl)pyrimidin-4-yl)benzene-1,3-diamine]
- RPPA EMA.M.C (Average): 1.019
- RPPA ENY2.M.C (Average): 0.945
- RPPA ER.a.R.V (Average): 1.031
- RPPA ER.a_pS118.R.V (Average): 1.194
- RPPA ERCC1.R.C (Average): 0.974
- RPPA ERCC5.R.C (Average): 0.991
- RPPA ERRalpha.R.V (Average): 1.000
- RPPA EVI1.R.V (Average): 0.976
- RPPA Elk1_pS383.R.C (Average): 1.029
- RPPA Enolase.2.R.V (Average): 1.011
- RPPA EphA2.R.V (Average): 0.963
- RPPA EphA2_pS897.R.C (Average): 0.963
- RPPA Erk5.R.V (Average): 1.061
- RPPA Ets.1.R.V (Average): 0.910
- RPPA FABP5.R.C (Average): 0.807
- RPPA FAK.R.C (Average): 1.005
- RPPA FAK_pY397.R.V (Average): 1.015
- RPPA FANCD2.R.V (Average): 1.011
- RPPA FASN.R.V (Average): 0.986
- RPPA FGF.basic.R.C (Average): 0.990
- RPPA FN14.R.C (Average): 1.084
- RPPA FOXM1.R.V (Average): 1.005
- RPPA FTO.R.V (Average): 0.940
- RPPA Fibronectin.R.V (Average): 0.998
- RPPA FoxO3a_pS318_S321.R.C (Average): 0.976
- RPPA G6PD.R.V (Average): 0.982
- RPPA GATA3.M.V (Average): 0.852
- RPPA GATA6.R.V (Average): 0.999
- RPPA GCLC.R.C (Average): 1.009
- RPPA GCLM.R.V (Average): 0.973
- RPPA GCN5L2.R.V (Average): 1.028
- RPPA GGPS1.M.V (Average): 0.917
- RPPA GRB2.R.V (Average): 1.049
- RPPA GRB7.R.V (Average): 1.025
- RPPA GSK.3a.b.M.V (Average): 0.977
- RPPA GSK.3a.b_pS21_S9.R.V (Average): 0.983
- RPPA Gab2.R.V (Average): 1.019
- RPPA Gli1.R.C (Average): 1.002
- RPPA Gli3.R.C (Average): 0.909
- RPPA Glucocorticoid.Receptor.R.V (Average): 1.019
- RPPA Glutamate.D1.2.R.V (Average): 0.907
- RPPA Glutaminase.R.C (Average): 0.909
- RPPA Granzyme.B.R.V (Average): 1.098
- RPPA Grp75.R.C (Average): 0.983
- RPPA Gys_pS641.R.V (Average): 1.021
- RPPA H2AX_pS139.R.C (Average): 1.019
- RPPA H2AX_pS140.M.C (Average): 0.923
- RPPA HER2.M.V (Average): 0.962
- RPPA HER2_pY1248.R.V (Average): 1.025
- RPPA HER3_pY1289.R.C (Average): 0.983
- RPPA HES1.R.V (Average): 1.187
- RPPA X4E.BP1.R.V (Average): 1.200
- RPPA X4E.BP1_pS65.R.V (Average): 1.011
- RPPA X4E.BP1_pT37_T46.R.V (Average): 1.016
- RPPA X14.3.3.zeta.R.V (Average): 0.987
- RPPA X14.3.3βR.V (Average): 1.006
- RPPA X14.3.3εM.C (Average): 0.962
- RPPA X53BP1.R.V (Average): 0.978
- RPPA b.Actin.R.C (Average): 0.929
- RPPA b.Catenin.R.V (Average): 0.915
- RPPA b.Catenin_pT41_S45.R.V (Average): 1.024
- RPPA c.Abl.R.V (Average): 1.084
- RPPA c.Abl_pY412.R.C (Average): 1.056
- RPPA c.IAP2.R.C (Average): 1.003
- RPPA eEF2.R.C (Average): 0.913
- RPPA eEF2K.R.V (Average): 0.916
- RPPA eIF4E.R.V (Average): 1.118
- RPPA eIF4E_pS209.R.V (Average): 1.025
- RPPA eIF4G.R.C (Average): 1.047
- RPPA level HLA.DQA1.R.V (Average): 0.948
- RPPA level HLA.DR.DP.DQ.DX.R.C (Average): 0.928
- RPPA level HMHA1.R.V (Average): 1.133
- RPPA level HNRNPK.R.V (Average): 0.988
- RPPA level HSP27.M.C (Average): 1.008
- RPPA level HSP27_pS82.R.V (Average): 1.113
- RPPA level HSP60.R.V (Average): 1.017
- RPPA level HSP70.R.C (Average): 1.003
- RPPA level Hexokinase.I.R.C (Average): 0.909
- RPPA level Hexokinase.II.R.V (Average): 0.992
- RPPA level Hif.1αR.C (Average): 1.051
- RPPA level Histone.H3.R.V (Average): 0.963
- RPPA level Histone.H3_pS10.R.V (Average): 0.786
- RPPA level IGF1R_pY1135_Y1136.R.V (Average): 1.035
- RPPA level IGFBP2.R.V (Average): 0.875
- RPPA level IGFBP3.M.V (Average): 0.957
- RPPA level IGFRb.R.C (Average): 1.062
- RPPA level IL.6.R.C (Average): 1.050
- RPPA level IMP3.R.C (Average): 0.997
- RPPA level IR.b.R.C (Average): 1.131
- RPPA level IRF.1.R.V (Average): 1.000
- RPPA level IRF.3.R.V (Average): 1.007
- RPPA level IRS1.R.V (Average): 1.078
- RPPA level IRS2.R.C (Average): 0.971
- RPPA level JAB1.M.C (Average): 0.973
- RPPA level JNK2.R.V (Average): 0.889
- RPPA level JNK_pT183_Y185.R.C (Average): 1.026
- RPPA level Jak2.R.V (Average): 1.011
- RPPA level KAP1.R.V (Average): 0.915
- RPPA level KEAP1.R.V (Average): 0.914
- RPPA level LC3A.B.R.C (Average): 0.914
- RPPA level LCN2.R.V (Average): 1.165
- RPPA level LDHA.R.C (Average): 0.789
- RPPA level LRP6_pS1490.R.V (Average): 1.065
- RPPA level Lasu1.R.V (Average): 0.902
- RPPA level Lck.R.V (Average): 0.925
- RPPA level Lyn.R.V (Average): 0.878
- RPPA level MACC1.R.V (Average): 1.021
- RPPA level MAPK_pT202_Y204.R.C (Average): 1.079
- RPPA level MCT4.R.V (Average): 0.958
- RPPA level MDM2_pS166.R.V (Average): 0.899
- RPPA level MEK1.R.V (Average): 1.584
- RPPA level MEK1_pS217_S221.R.V (Average): 1.125
- RPPA level MERIT40.R.C (Average): 0.975
- RPPA level METTL3.R.V (Average): 0.920
- RPPA level MIF.R.C (Average): 1.010
- RPPA level MIG6.R.V (Average): 1.024
- RPPA level MITF.R.V (Average): 0.967
- RPPA level MLH1.M.V (Average): 0.943
- RPPA level MLKL.R.V (Average): 0.967
- RPPA level MMP2.R.V (Average): 0.995
- RPPA level MMP14.R.V (Average): 0.964
- RPPA level MR1.M.C (Average): 1.033
- RPPA level MRAP.R.C (Average): 1.061
- RPPA level MSH2.R.C (Average): 0.932
- RPPA level MSH6.R.C (Average): 0.925
- RPPA level MSI2.R.C (Average): 1.004
- RPPA level MTCO1.M.V (Average): 0.944
- RPPA level MTSS1.M.C (Average): 0.998
- RPPA level Mcl.1.R.V (Average): 1.076
- RPPA level MelanA.R.C (Average): 1.025
- RPPA level Melanoma.gp100.R.C (Average): 1.061
- RPPA level Merlin.R.C (Average): 0.894
- RPPA level Midkine.R.V (Average): 1.001
- RPPA level Mitofusin.1.R.V (Average): 1.053
- RPPA level Mitofusin.2.R.V (Average): 1.013
- RPPA level mTOR.R.V (Average): 1.016
- RPPA level mTOR_pS2448.R.C (Average): 1.025
- c.Jun_pS73.R.V RPPA level (Average): 0.983
- c.Kit.R.V RPPA level (Average): 0.895
- c.Met_pY1234_Y1235.R.V RPPA level (Average): 1.062
- c.Myc.R.C RPPA level (Average): 1.010
- cGAS.R.V RPPA level (Average): 1.020
- cdc2_pY15.R.C RPPA level (Average): 1.200
- RPPA A.Raf.R.V (B.1): 0.964
- RPPA A.Raf_pS299.R.C (B.1): 1.002
- RPPA ACC1.R.C (B.1): 1.160
- RPPA ACC_pS79.R.V (B.1): 0.974
- RPPA ACSL1.R.V (B.1): 1.052
- RPPA ACVRL1.R.C (B.1): 1.027
- RPPA ADAR1.M.V (B.1): 0.990
- RPPA ALKBH5.R.V (B.1): 1.061
- RPPA AMPK.a2_pS345.R.V (B.1): 0.982
- RPPA AMPKa.R.C (B.1): 1.010
- RPPA AMPKa_pT172.R.C (B.1): 0.679
- RPPA ARID1A.R.C (B.1): 0.955
- RPPA ASNS.R.V (B.1): 1.050
- RPPA ATM.R.V (B.1): 1.017
- RPPA ATM_pS1981.R.V (B.1): 1.023
- RPPA ATP5A.M.C (B.1): 1.186
- RPPA ATP5H.R.V (B.1): 1.203
- RPPA ATR.R.V (B.1): 1.027
- RPPA ATRX.R.C (B.1): 0.816
- RPPA ATR_pS428.R.C (B.1): 0.959
